Results reported in US4698327A, “Novel glycopeptide derivatives” (priority 1986, dated 1987).
Values after ≈ are worked out from the molar mass of the structure shown.

Tests used:
[1] = tested on: Haemophilus influenzae C.L.; assay: MIC, standard agar-dilution assay; format: cell-based
[2] = tested on: Staphylococcus epidermidis EPI1; format: cell-based; details: agar dilution
Escherichia coli EC14 = assay: MIC, standard agar-dilution assay; format: cell-based
[3] = tested on: Staphylococcus aureus V41; assay: MIC, standard agar-dilution assay; format: cell-based
[4] = tested on: Klebsiella pneumoniae X26; assay: MIC, standard agar-dilution assay; format: cell-based
[5] = tested on: Streptococcus pyogenes C203; assay: MIC, standard agar-dilution assay; format: cell-based
[6] = tested on: Klebsiella pneumoniae X68; assay: MIC, standard agar-dilution assay; format: cell-based
[7] = tested on: Streptococcus sp. group D 2041; assay: MIC, standard agar-dilution assay; format: cell-based
[8] = tested on: Streptococcus pneumoniae Park 1; format: cell-based; details: agar dilution
[9] = tested on: Klebsiella pneumoniae KAE; assay: MIC, standard agar-dilution assay; format: cell-based
[10] = tested on: Staphylococcus aureus S13E; format: cell-based; details: agar dilution
[11] = tested on: Staphylococcus aureus X400; assay: MIC, standard agar-dilution assay; format: cell-based
Streptococcus pyogenes = Streptococcus pyogenes infection in mice; two doses, administered subcutaneously
Streptococcus pneumoniae = Streptococcus pneumoniae infection in mice; two doses, administered subcutaneously
Staphylococcus aureus = Staphylococcus aureus infection in mice; two doses, administered subcutaneously
Escherichia coli N10 = assay: MIC, standard agar-dilution assay; format: cell-based
Escherichia coli TEM = assay: MIC, standard agar-dilution assay; format: cell-based
[12] = tested on: Streptococcus faecium ATCC 9790; assay: MIC, standard agar-dilution assay; format: cell-based
[13] = tested on: Staphylococcus epidermidis 222; assay: MIC, standard agar-dilution assay; format: cell-based
[14] = tested on: Haemophilus influenzae 76; assay: MIC, standard agar-dilution assay; format: cell-based
[15] = tested on: Staphylococcus aureus NRRL B313; details: agar dilution

Structure (SMILES)	MIC [1]	MIC [2]	MIC (Escherichia coli EC14)	MIC [3]	MIC [4]	MIC [5]	MIC [6]	MIC [7]	MIC [8]	MIC [9]	MIC [10]	MIC [11]	ED50 (Streptococcus pyogenes)	ED50 (Streptococcus pneumoniae)	ED50 (Staphylococcus aureus)	MIC (Escherichia coli N10)	MIC (Escherichia coli TEM)	MIC [12]	MIC [13]	MIC [14]	further results
CCCCCCCCCCNC1(C)CC(OC2C(Oc3c4cc5cc3Oc3ccc(cc3Cl)C(O)C3NC(=O)C(NC(=O)C5NC(=O)C(CC(N)=O)NC(=O)C(NC(=O)C(CC(C)C)NC)C(O)c5ccc(c(Cl)c5)O4)c4ccc(O)c(c4)-c4c(O)cc(O)cc4C(C(=O)O)NC3=O)OC(CO)C(O)C2O)OC(C)C1O (centres unmarked) [Compound 2, N^van -(n-decyl)vancomycin]	128 µg/mL (≈ 80.5 µM)	0.25 µg/mL (≈ 0.157 µM)	> 128 µg/mL	0.25 µg/mL (≈ 0.157 µM)	> 128 µg/mL	0.06 µg/mL (≈ 0.0377 µM)	> 128 µg/mL	0.25 µg/mL (≈ 0.157 µM)	0.125 µg/mL (≈ 0.0786 µM)	> 128 µg/mL	0.25 µg/mL (≈ 0.157 µM)	0.25 µg/mL (≈ 0.157 µM)	1.6 mg/kg/2	0.51 mg/kg/2	1.8 mg/kg/2	> 128 µg/mL	> 128 µg/mL	0.25 µg/mL (≈ 0.157 µM)	0.25 µg/mL (≈ 0.157 µM)	128 µg/mL (≈ 80.5 µM)	
CCCCCCCCCCN(C)C(CC(C)C)C(=O)NC1C(=O)NC(CC(N)=O)C(=O)NC2C(=O)NC3C(=O)NC(C(=O)NC(C(=O)O)c4cc(O)cc(O)c4-c4cc3ccc4O)C(O)c3ccc(c(Cl)c3)Oc3cc2cc(c3OC2OC(CO)C(O)C(O)C2OC2CC(C)(N)C(O)C(C)O2)Oc2ccc(cc2Cl)C1O (centres unmarked) [Compound 3, N^leu --(n-decyl)vancomycin]	128 µg/mL (≈ 80.5 µM)	2 µg/mL (≈ 1.26 µM)	> 128 µg/mL	0.5 µg/mL (≈ 0.315 µM)	> 128 µg/mL	0.5 µg/mL (≈ 0.315 µM)	> 128 µg/mL	1 µg/mL (≈ 0.629 µM)	0.5 µg/mL (≈ 0.315 µM)	> 128 µg/mL	0.5 µg/mL (≈ 0.315 µM)	0.5 µg/mL (≈ 0.315 µM)	4.6 mg/kg/2	3.6 mg/kg/2	> 5 mg/kg/2	> 128 µg/mL	> 128 µg/mL	0.5 µg/mL (≈ 0.315 µM)	1 µg/mL (≈ 0.629 µM)	> 128 µg/mL	MIC [15]: 0.5 µg/mL (≈ 0.315 µM)
CCCCCCCCCNC1(C)CC(OC2C(Oc3c4cc5cc3Oc3ccc(cc3Cl)C(O)C3NC(=O)C(NC(=O)C5NC(=O)C(CC(N)=O)NC(=O)C(NC(=O)C(CC(C)C)NC)C(O)c5ccc(c(Cl)c5)O4)c4ccc(O)c(c4)-c4c(O)cc(O)cc4C(C(=O)O)NC3=O)OC(CO)C(O)C2O)OC(C)C1O (centres unmarked) [Compound 5, N^van --(n-nonyl)vancomycin]	64 µg/mL (≈ 40.6 µM)	0.5 µg/mL (≈ 0.317 µM)	> 128 µg/mL	0.25 µg/mL (≈ 0.159 µM)	> 128 µg/mL	0.125 µg/mL (≈ 0.0793 µM)	> 128 µg/mL	0.5 µg/mL (≈ 0.317 µM)	0.25 µg/mL (≈ 0.159 µM)	> 128 µg/mL	0.25 µg/mL (≈ 0.159 µM)	0.25 µg/mL (≈ 0.159 µM)	0.56 mg/kg/2	0.81 mg/kg/2	2.9 mg/kg/2	> 128 µg/mL	> 128 µg/mL	0.25 µg/mL (≈ 0.159 µM)	0.25 µg/mL (≈ 0.159 µM)	64 µg/mL (≈ 40.6 µM)	MIC [15]: 0.25 µg/mL (≈ 0.159 µM)
CCCCCCCCN(C)C(CC(C)C)C(=O)NC1C(=O)NC(CC(N)=O)C(=O)NC2C(=O)NC3C(=O)NC(C(=O)NC(C(=O)O)c4cc(O)cc(O)c4-c4cc3ccc4O)C(O)c3ccc(c(Cl)c3)Oc3cc2cc(c3OC2OC(CO)C(O)C(O)C2OC2CC(C)(N)C(O)C(C)O2)Oc2ccc(cc2Cl)C1O (centres unmarked) [Compound 8, N^leu --(n-octyl)vancomycin]	128 µg/mL (≈ 82 µM)	2 µg/mL (≈ 1.28 µM)	> 128 µg/mL	0.5 µg/mL (≈ 0.32 µM)	> 128 µg/mL	0.5 µg/mL (≈ 0.32 µM)	> 128 µg/mL	2 µg/mL (≈ 1.28 µM)	1 µg/mL (≈ 0.64 µM)	> 128 µg/mL	1 µg/mL (≈ 0.64 µM)	1 µg/mL (≈ 0.64 µM)	3.7 mg/kg/2	3.1 mg/kg/2	> 5 mg/kg/2	> 128 µg/mL	> 128 µg/mL	1 µg/mL (≈ 0.64 µM)	1 µg/mL (≈ 0.64 µM)	128 µg/mL (≈ 82 µM)	MIC [15]: 0.5 µg/mL (≈ 0.32 µM)
CCN(CC)c1ccc(CNC2(C)CC(OC3C(Oc4c5cc6cc4Oc4ccc(cc4Cl)C(O)C4NC(=O)C(NC(=O)C6NC(=O)C(CC(N)=O)NC(=O)C(NC(=O)C(CC(C)C)NC)C(O)c6ccc(c(Cl)c6)O5)c5ccc(O)c(c5)-c5c(O)cc(O)cc5C(C(=O)O)NC4=O)OC(CO)C(O)C3O)OC(C)C2O)cc1 (centres unmarked) [Example 77, N^van ( -p-diethylaminobenzyl)vancomycin]	128 µg/mL (≈ 79.5 µM)	1 µg/mL (≈ 0.621 µM)	> 128 µg/mL	0.5 µg/mL (≈ 0.31 µM)	> 128 µg/mL	0.25 µg/mL (≈ 0.155 µM)	> 128 µg/mL	1 µg/mL (≈ 0.621 µM)	0.125 µg/mL (≈ 0.0776 µM)	> 128 µg/mL	0.5 µg/mL (≈ 0.31 µM)	0.5 µg/mL (≈ 0.31 µM)	0.8 mg/kg/2	1.2 mg/kg/2	1.1 mg/kg/2	> 128 µg/mL	> 128 µg/mL	0.5 µg/mL (≈ 0.31 µM)	0.5 µg/mL (≈ 0.31 µM)	128 µg/mL (≈ 79.5 µM)	MIC [15]: 0.25 µg/mL (≈ 0.155 µM)
CNC(CC(C)C)C(=O)NC1C(=O)NC(CC(N)=O)C(=O)NC2C(=O)NC3C(=O)NC(C(=O)NC(C(=O)O)c4cc(O)cc(O)c4-c4cc3ccc4O)C(O)c3ccc(c(Cl)c3)Oc3cc2cc(c3OC2OC(CO)C(O)C(O)C2OC2CC(C)(NCc3ccc(Br)cc3)C(O)C(C)O2)Oc2ccc(cc2Cl)C1O (centres unmarked) [Example 80, N^van --( -p-bromobenzyl)vancomycin]	64 µg/mL (≈ 39.5 µM)	1 µg/mL (≈ 0.618 µM)	> 128 µg/mL	0.5 µg/mL (≈ 0.309 µM)	> 128 µg/mL	0.25 µg/mL (≈ 0.154 µM)	> 128 µg/mL	1 µg/mL (≈ 0.618 µM)	0.03 µg/mL (≈ 0.0185 µM)	> 128 µg/mL	0.25 µg/mL (≈ 0.154 µM)	0.25 µg/mL (≈ 0.154 µM)	0.78 mg/kg/2	0.41 mg/kg/2	1.34 mg/kg/2	> 128 µg/mL	> 128 µg/mL	0.25 µg/mL (≈ 0.154 µM)	0.5 µg/mL (≈ 0.309 µM)	64 µg/mL (≈ 39.5 µM)	MIC [15]: 0.25 µg/mL (≈ 0.154 µM)
CCCCc1ccc(CNC2(C)CC(OC3C(Oc4c5cc6cc4Oc4ccc(cc4Cl)C(O)C4NC(=O)C(NC(=O)C6NC(=O)C(CC(N)=O)NC(=O)C(NC(=O)C(CC(C)C)NC)C(O)c6ccc(c(Cl)c6)O5)c5ccc(O)c(c5)-c5c(O)cc(O)cc5C(C(=O)O)NC4=O)OC(CO)C(O)C3O)OC(C)C2O)cc1 (centres unmarked) [Example 81, N^van --( -p-butylbenzyl)vancomycin]	32 µg/mL (≈ 20.1 µM)	0.25 µg/mL (≈ 0.157 µM)	> 128 µg/mL	0.125 µg/mL (≈ 0.0783 µM)	> 128 µg/mL	0.06 µg/mL (≈ 0.0376 µM)	> 128 µg/mL	0.25 µg/mL (≈ 0.157 µM)	0.06 µg/mL (≈ 0.0376 µM)	> 128 µg/mL	0.06 µg/mL (≈ 0.0376 µM)	0.125 µg/mL (≈ 0.0783 µM)	1.16 mg/kg/2	1.26 mg/kg/2	0.74 mg/kg/2	> 128 µg/mL	> 128 µg/mL	0.06 µg/mL (≈ 0.0376 µM)	0.125 µg/mL (≈ 0.0783 µM)	32 µg/mL (≈ 20.1 µM)	MIC [15]: 0.06 µg/mL (≈ 0.0376 µM)
CCCCOc1ccc(CNC2(C)CC(OC3C(Oc4c5cc6cc4Oc4ccc(cc4Cl)C(O)C4NC(=O)C(NC(=O)C6NC(=O)C(CC(N)=O)NC(=O)C(NC(=O)C(CC(C)C)NC)C(O)c6ccc(c(Cl)c6)O5)c5ccc(O)c(c5)-c5c(O)cc(O)cc5C(C(=O)O)NC4=O)OC(CO)C(O)C3O)OC(C)C2O)cc1 (centres unmarked) [Example 84, N^van --( -p-butoxybenzyl)vancomycin]	32 µg/mL (≈ 19.9 µM)	0.25 µg/mL (≈ 0.155 µM)	> 128 µg/mL	0.125 µg/mL (≈ 0.0776 µM)	> 128 µg/mL	0.06 µg/mL (≈ 0.0372 µM)	> 128 µg/mL	0.25 µg/mL (≈ 0.155 µM)	0.03 µg/mL (≈ 0.0186 µM)	> 128 µg/mL	0.125 µg/mL (≈ 0.0776 µM)	0.125 µg/mL (≈ 0.0776 µM)	0.69 mg/kg/2	1.14 mg/kg/2	0.65 mg/kg/2	> 128 µg/mL	> 128 µg/mL	0.125 µg/mL (≈ 0.0776 µM)	0.25 µg/mL (≈ 0.155 µM)	64 µg/mL (≈ 39.7 µM)	MIC [15]: 0.125 µg/mL (≈ 0.0776 µM)
